The source of these data is ChEMBL document CHEMBL1201862, “PubChem BioAssay data set” (2004).

What all share (assay): NCI-60 cell line screen, 48 h
In experiment [1] the test system is K562.
The subject of experiment [2] is HOP-92.
Experiment [3] relates to UO-31.
Experiment [4] deals with SF-295.
Experiment [5] relates to HL-60.
The test system of experiment [6] is KM12.
Experiment [7] concerns COLO 205.
For experiment [8], the system named is A549.
Experiment [9] concerns SK-MEL-5.
Experiment [10] relates to Hs-578T.
Experiment [11] relates to MCF7.
For experiment [12], the system named is LOX IMVI.
Experiment [13] relates to Malme-3M.
Experiment [14] has as its system CAKI-1.
For experiment [15], the system named is DU-145.
For experiment [16], the system named is RPMI-8226.
The subject of experiment [17] is OVCAR-8.
The test system of experiment [18] is SK-OV-3.
Experiment [19] concerns HT-29.
The subject of experiment [20] is SR.

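In this assay, cells in 96-well plates receive the compound at five concentrations for 48 hours. Endpoints are linearly interpolated between the surrounding concentrations. GI50 = concentration required for 50% inhibition of growth.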 Active and inactive are the calls of the source. Cut-off read from the data, not from the text of the source: active = GI50 up to about 1.1 µM and inactive = higher. Peptide text beside a SMILES is read from it. * marks the point of attachment. OSu = O=C1CCC(=O)N1O*

For `O=c1oc2ccc3ccccc3c2cc1-c1cn2c(n1)sc1ccccc12`, the GI50 in experiment [1] was 2.69 µM (inactive); in [2] it was 55.2 µM (inactive); in [3] it was > 100 µM (inactive); in experiment [4] it was > 100 µM (inactive); in experiment [5], > 100 µM (inactive); in experiment [6] it was > 100 µM (inactive). Also, the GI50 is > 100 µM (inactive) in experiment [7]; > 100 µM (inactive) in experiment [8]; > 100 µM (inactive) in [9]; > 100 µM (inactive) in [10]; 26.4 µM (inactive) in experiment [11]; > 100 µM (inactive) in experiment [12]. Moreover, the GI50 in [13], in experiment [14], in experiment [15], in experiment [16], in experiment [17] and in experiment [18] was > 100 µM (inactive) throughout. For the same compound, the GI50 in experiment [19] was > 100 µM (inactive).
Turning to `CC(C)=CC1C(C(=O)OCc2cc3c(cc2Cl)OCO3)C1(C)C` (stereo unspecified), the GI50 in experiment [1] was 20.1 µM (inactive); in experiment [2], 31.7 µM (inactive); in experiment [3] it was 46.1 µM (inactive); in experiment [4], 26.3 µM (inactive); in experiment [20], 15.7 µM (inactive); in experiment [6] it was 27.7 µM (inactive). Moreover, the GI50 in experiment [8] was 31.5 µM (inactive); in experiment [9], 16.7 µM (inactive); in [10] it was 21.9 µM (inactive); in experiment [12] it was 16.6 µM (inactive); in experiment [13], 15.5 µM (inactive); in [14], 56.1 µM (inactive). Moreover, the GI50 in experiment [15] is > 100 µM (inactive); in experiment [17], 44.3 µM (inactive); in experiment [19], 23.1 µM (inactive).
Regarding `N#CC(C#N)=Cc1ccc(C=C2SC3=C(SCCS3)S2)s1`, the GI50 was 17.6 µM (inactive) in experiment [2]; > 100 µM (inactive) in [3]; 24.4 µM (inactive) in [4]; 0.286 µM (active) in [5]; 2.25 µM (inactive) in [6]; 8.73 µM (inactive) in [7]. In addition, the GI50 is 55.5 µM (inactive) in [8]; 3.33 µM (inactive) in [9]; 41.6 µM (inactive) in [10]; 2.24 µM (inactive) in [11]; > 100 µM (inactive) in experiment [13]; 3.47 µM (inactive) in experiment [14]. The GI50 is > 100 µM (inactive) in [15]; 0.881 µM (active) in [16]; 29.9 µM (inactive) in experiment [17]; 74.8 µM (inactive) in [18]; 3.39 µM (inactive) in experiment [19].
Turning to `COC(=O)c1ccc(NC(=O)c2cc3c(cc2Br)OCO3)o1`, the GI50 in [1] was 63.2 µM (inactive); in experiment [2] it was 26.5 µM (inactive); in experiment [3] it was > 100 µM (inactive); in experiment [4], > 100 µM (inactive); in experiment [20], 41.4 µM (inactive); in [5] it was > 100 µM (inactive). For the same compound, the GI50 in experiment [6], in experiment [7], in [8], in experiment [9], in experiment [11] and in experiment [12] was > 100 µM (inactive) in each case. Further, the GI50 in [14], in experiment [15], in experiment [16], in [17], in experiment [18] and in experiment [19] was > 100 µM (inactive) in each case.
In the case of `C/C(=N/NC(=S)NCCc1ccccn1)c1cnccn1`, the GI50 in experiment [2] was 49.3 µM (inactive); in experiment [3], 16.6 µM (inactive); in experiment [4], 24.4 µM (inactive); in experiment [20], 2.44 µM (inactive); in [6], 36.9 µM (inactive); in [7], 3.8 µM (inactive). Also, the GI50 in experiment [8] is 28.8 µM (inactive); in [9], 27 µM (inactive); in [10], 78.5 µM (inactive); in experiment [12], 9.66 µM (inactive); in experiment [13], 6.37 µM (inactive); in experiment [14] it was 14.1 µM (inactive). The GI50 in [15] is 17.8 µM (inactive); in experiment [16], 13.3 µM (inactive); in experiment [18], 20.1 µM (inactive); in experiment [19], 3.78 µM (inactive).
As for `CSC1=C(C#N)C(=S)N=C(N)C1C(=O)Nc1ccc(C)cc1` (stereo unspecified), the GI50 is > 100 µM (inactive) in experiment [1]; 64 µM (inactive) in experiment [3]; > 100 µM (inactive) in experiment [20]; > 100 µM (inactive) in experiment [5]; > 100 µM (inactive) in experiment [6]; > 100 µM (inactive) in experiment [7]. Besides, the GI50 in experiment [8], in [9], in experiment [10], in experiment [12], in experiment [13] and in [14] was > 100 µM (inactive) in each case. The GI50 in experiment [15], in experiment [16], in experiment [17], in experiment [18] and in experiment [19] was > 100 µM (inactive) each time.
In the case of `NCCCCC(NC(=O)C(N)Cc1ccc(O)cc1)C(=O)NC(Cc1ccc(O)cc1)C(=O)NC(CCCCN)C(=O)ON1C(=O)CCC1=O` (stereo unspecified) (H-YKYK-OSu; configuration not given here), the GI50 in [1], in experiment [2], in experiment [3], in experiment [20], in [5] and in experiment [6] was > 100 µM (inactive) in each case. Also, the GI50 in [7], in experiment [8], in experiment [9], in [10], in experiment [11] and in experiment [13] was > 100 µM (inactive) in each case. The GI50 in experiment [16], in [17] and in experiment [19] was > 100 µM (inactive) in each case.
For `Oc1cc(-c2ccc3ccccc3c2)nc2ncc(Cl)cc12`, the GI50 is 3.23 µM (inactive) in [1]; 5.31 µM (inactive) in experiment [2]; 14.4 µM (inactive) in experiment [3]; 3.79 µM (inactive) in experiment [6]; 3.81 µM (inactive) in experiment [7]; 6.92 µM (inactive) in experiment [8]. For the same compound, the GI50 in experiment [10] was 5.27 µM (inactive); in experiment [11], 2.44 µM (inactive); in [12], 5.33 µM (inactive); in experiment [13], 4.05 µM (inactive); in experiment [15] it was 11.4 µM (inactive); in experiment [16] it was 2.99 µM (inactive). Moreover, the GI50 in [17] was 6.15 µM (inactive); in experiment [18], 4.73 µM (inactive); in experiment [19] it was 5.66 µM (inactive).
Regarding `C=C1C(=O)O[C@H]2[C@H]([C@H](C)CCCC(C)=O)O[C@H]([C@@]3(C)CCC(=O)O3)C[C@@H]12`, the GI50 in [1] was 61.4 µM (inactive); in experiment [2] it was > 100 µM (inactive); in experiment [3], > 100 µM (inactive); in [4], > 100 µM (inactive); in experiment [20], 55.6 µM (inactive); in experiment [5] it was 41.7 µM (inactive). Further, the GI50 was 98.9 µM (inactive) in experiment [6]; 40.6 µM (inactive) in experiment [7]; > 100 µM (inactive) in experiment [8]; > 100 µM (inactive) in [9]; 29.2 µM (inactive) in experiment [10]; 24.4 µM (inactive) in experiment [12]. Besides, the GI50 in experiment [13] was 18.4 µM (inactive); in [14], 18.3 µM (inactive); in [15], 40.6 µM (inactive); in experiment [16], 31.8 µM (inactive); in [17], 63.4 µM (inactive); in [18] it was > 100 µM (inactive). The GI50 in experiment [19] was 90.2 µM (inactive).
Regarding `CC1(C)COC(c2cccc(C3=NC(C)(C)CO3)c2Br)=N1`, the GI50 in experiment [1], in [2], in experiment [3], in experiment [20], in experiment [5] and in experiment [6] was > 100 µM (inactive) in each case. For the same compound, the GI50 in [7], in [8], in experiment [9], in experiment [11], in experiment [12] and in experiment [13] was > 100 µM (inactive) each time. Besides, the GI50 in [14], in experiment [15], in experiment [16], in experiment [17] and in [19] was > 100 µM (inactive) throughout.
As to `O=[N+]([O-])C(=C(Nc1ccccc1)Nc1ccccc1)C(Cl)=C(Cl)Cl`, the GI50 in experiment [1] is 10.3 µM (inactive); in [2], 15.8 µM (inactive); in [3], 24.5 µM (inactive); in [4] it was 17.8 µM (inactive); in [6], 24.9 µM (inactive); in experiment [7], 17.5 µM (inactive). In addition, the GI50 is 17.7 µM (inactive) in [8]; 13.8 µM (inactive) in experiment [9]; 21.7 µM (inactive) in experiment [10]; 12 µM (inactive) in [11]; 8.77 µM (inactive) in experiment [12]; 19.6 µM (inactive) in experiment [13]. The GI50 was 17.1 µM (inactive) in experiment [14]; 17.5 µM (inactive) in [15]; 32.8 µM (inactive) in experiment [16]; 22.9 µM (inactive) in experiment [17]; 29 µM (inactive) in [18]; 16.4 µM (inactive) in experiment [19].
